Data published in patent US6841720B1, “Inducible promoters” (Biogemma UK LTD, priority 1998, dated 2005).
Like-named read-outs stand apart in the source and are kept apart here.

How the values were obtained:
[1] = system: extracellular aPR-5 proteins; details: leaf discs, cited from earlier work
[2] = system: AoPRT-L promoter-GUS fusion; assay: AoPRT-L promoter-GUS expression in transgenic tobacco (fluorimetric GUS assay); type: in vivo, Nicotiana tabacum (cv Samsun); details: for Time-dependent induction of AoPRT-L promoter-GUS fusion: treatment with 1 mM, time course; for AoPRT-L-promoter-GUS expression after infiltration of pro-oxidant: infiltrated into leaf panels, over the concentration range tested; for Induction of AoPRT-L promoter-GUS by wound signals: transgenic tobacco, summary statement; for Induction of AoPRT-L promoter-GUS fusion: root-fed 3 days, leaf cores
Experimental: The AoPRT-L promoter construct (p22-GUS(INT) Bin 19) was transformed into Nicotiana tabacum (cv Samsun) using standard Agrobacterium tumefaciens-mediated transformation techniques (Draper et al., (1988): Plant Genetic Transformation and Gene Expression—A Laboratory Manual. Blackwell Scientific Publications, Oxford, UK). The expression of the GUS gene driven by the AoPRT-L promoter was analysed using assays described previously (Draper et al., (1988) supra).
Plants were sprayed once, allowed to dry and then sprayed again on the same day (day 0). After 3 or 6 days leaf cores were taken and GUS activity was measured using a standard fluorimetric assay. […] Leaf cores from tobacco harbouring the AoPRT-L promoter fusion with GUS were floated for 3 or 6 days on water containing increasing concentrations of BTH after which time GUS activity in the leaf discs was measured fluorometrically.
Wounding of tobacco leaves (using the hammer method) or infection of tobacco with Pseudomonas syringae pathovar phaseolicola induces local accumulation of the wound-related phytohormone jasmonic acid (JA) (Kenton et al., submitted; Mur et al., (1997) Trends in Microbiol 5:297-300). Leaf cores from tobacco harbouring the AoPRT-L promoter fusion with GUS were floated for 3 days on water containing increasing concentrations of JA after which time GUS activity in the leaf discs was measured using a standard fluorimetric assay. […]
(§1) In order to test whether oxidative stress is likely to induce high levels of AoPRT-L promoter-driven gene expression, H2O2 was infiltrated into leaf panels of transgenic tobacco harbouring the AoPRT-L-promoter-GUS construct (FIG. 13a). […] However, H2O2 has a limited half-life (around 10 mins—Levine et al., (1994) Cell 79: 583-593) in the apoplast, thus the experiment was repeated using a stable peroxide, t-butyl-hydroperoxide (FIG. 13b).

AoPRT-L-GUS = AoPRT-L-GUS expression in transgenic maize; type: in vivo, Zea mays; details: treated with SA or BTH
From the text: Maize plants containing AoPRT-L-GUS were produced by biolistic transformation of callus material with pJIT60-P22 GUS int.

AoPRT-Lx3 promoter-GUS = assay: pAoPRT-Lx3-GUS expression in transgenic tobacco; type: in vivo, samsun tobacco; details: on SA or BTH induction
From the text: In order to construct an AoPRT-L promoter that has higher expression, the region −247 bp to −133 bp was amplified from p22-JIT60 and placed twice in front of a −247 bp AoPRT-L promoter. This AoPRT-Lx3 promoter was constructed as follows: The primers below were used to PCR the 0 bp to −247 bp AoPRT-L promoter from p22-JIT60.
This fragment was cloned as a KpnI, XhoI fragment between the KpnI and SalI sites of the pUC19-derived plasmid forming pAoPRT-Lx2. The −133 bp to −247 bp pAoPRT-L fragment was then cloned as a KpnI, XhoI fragment between the KpnI and SalI sites of pAoPRT-Lx2 forming pAoPRT-Lx3 (FIG. 15c). Next the AoPRT-Lx3 promoter was cloned as an KpnI, PstI fragment into KpnI, PstI-cut p22-JIT60 forming pAoPRT-Lx3-JIT60. The pAoPRT-Lx3 was transferred from pAoPRT-L-x-JIT60 as a KpnI, BamHI fragment into KpnI, BamHI-cut p22-GUS (INT) JIT 60. Finally the resulting pAoPRT-Lx3 -GUS-CaMV poly A chimeric gene was cloned as KpnI, XhoI fragments into KpnI, SalI-cut pBin19 and transformed into samsun tobacco.

[3] = system: pGB24 (pAoPRT-L-LhG4 / pOP-GUS); assay: pGB24 amplification construct GUS expression in tobacco; type: in vivo; details: on SA or BTH induction
From the text: (§2) A way of increasing the activity of the AoPRT-L promoter whilst retaining tight regulation of the promoter is to use a system that will amplify expression of the AoPRT-L promoter. An amplification system was built using a transactivator (described in WO98/05789 and Moore et al., (1997) Proc. Natl. Acad. Sci. USA. 95, 379-381). The AoPRT-L promoter is linked to a synthetic transactivator (LhG4) and the target promoter of the transactivator (pOP) to the gene to be expressed. LhG4 consists of a mutated E. coli lacI gene fused to the transcriptional activator domain of the GALA from yeast. pOP910 is a minimal 35S CaMV promoter with two binding sites for the LhG4 protein. Since the transactivator can initiate multiple rounds of transcription from pOP, there is amplification of the initial signal that activated the AoPRT-L promoter.
(§3) The amplification system was constructed by the following steps. The pOP910 promoter was excised from pX-910TAG (K. Palme, Max Planck Institut fur Zuchtungsforchung, Koln, Germany) as a SstI-NcoI fragment and cloned into SstI,NcoI-cut pDH68 (pDH68 consists of a Pea Plastocyanin promoter (Pwee and Gray (1993) Plant J. 3, 437-449) linked to an intron GUS gene (D. Twell, Leicester University) cloned between the SstI and EcoRI sites of the vector pJIT30 (Guerineau et al., (1990) Plant Mol. Biol. 15, 127-136)). […]

[4] = system: pGB24 (pAoPRT-L-LhG4 / pOP-GUS); assay: pGB24 amplification construct GUS expression in B. napus; type: in vivo, B. napits; details: on SA or BTH induction
From the text: as §2, §3

PR-1a promoter-GUS = details: transgenic tobacco, cited from earlier work; for PR-1a promoter-GUS / endogenous PR-1a expression: direct application
PR gene promoters = details: cited from earlier work
tobacco leaf tissue = assay: Visible tissue damage in infiltrated transgenic tobacco leaf panels
Experimental: as §1

[5] = system: barley homologue of rice thaumatin-like protein; details: 1 ppm; cited from earlier work
barley aPR5 = details: in vivo; cited from earlier work
AoPRT-L mRNA = AoPRT-L mRNA accumulation in Asparagus (Northern hybridisation); type: in vivo, Asparagus officinalis; details: treated Asparagus
From the text: In chopped etiolated A. officinalis seedlings (<=0.5 cm in length) the AoPRT-L transcript was detectable from 3 days after wounding (FIG. 3b).

O=C(O)COc1ccc(Cl)cc1Cl [2,4 D]
Induction of extracellular aPR-5 proteins ([1]; 10 mM): induced

O=C(O)c1ccc(O)cc1 [4hBA, 4-hydroxybenzoic acid]
Time-dependent induction of AoPRT-L promoter-GUS fusion [2]: inactive

CC1=CC(=O)CC(C)(C)[C@@]1(O)/C=C/C(C)=C\C(=O)O [ABA, abscisic acid]
Level of induction relative to that observed using SA ([2]; ABA induction vs SA): an order of magnitude lower | AoPRT-L-promoter-GUS in leaf discs ([2]; high concentration of ABA, leaf discs): slight increase

CSC(=O)c1cccc2nnsc12 [BTH, benzo(1,2,3)thiadiazole-7-carbothoic acid S-methyl ester]
BTH concentration at which BTH-induced GUS activity is observed ([2]; leaf cores floated 3 or 6 days): 1.25 µM | Induction of AoPRT-L promoter-driven GUS expression by foliar spray ([2]; sprayed twice on day 0, 20 μM BTH vs 1 mM SA, leaf cores after 3 or 6 days): as effective an inducer of GUS expression driven by the AoPRT-L promoter as was SA | GUS activity of AoPRT-L-GUS maize on treatment (AoPRT-L-GUS): exhibited GUS activity | GUS activity of pAoPRT-Lx3-GUS plants vs equivalent AoPRT-L-GUS plants (AoPRT-Lx3 promoter-GUS): significantly greater level of GUS activity | GUS activity of pGB24 plants vs equivalent AoPRT-L-GUS plants [3]: significantly greater level of GUS activity | GUS activity of pGB24 plants vs equivalent AoPRT-L-GUS plants [4]: significantly greater level of GUS activity | PR-1a promoter-GUS / endogenous PR-1a expression (PR-1a promoter-GUS): high levels | PR gene expression induced by commercial preparations (PR gene promoters; all plants tested including arabidopsis and wheat): very strong PR gene expression | Concentration sufficient to induce PR gene expression (PR gene promoters; aqueous solution): 1.2 µM | Persistence of gene induction (PR gene promoters; spraying): at least 10 days | Time of maximal gene induction after application (PR gene promoters; spraying): 2 days

OO [H2O2, hydrogen peroxide]
AoPRT-L-promoter-GUS expression after infiltration of pro-oxidant [2]: failed to induce | Visible tissue damage after infiltration (tobacco leaf tissue; in vivo): no visible symptoms

[Cl][Hg][Cl] [HgCl3]
Induction of extracellular aPR-5 proteins ([1]; 5 mM): induced

O=C(O)c1cc(Cl)nc(Cl)c1 [INA, dichloroisonicotinic acid]
PR-1a promoter-GUS / endogenous PR-1a expression (PR-1a promoter-GUS): high levels | Expression of barley homologue of rice thaumatin-like protein [5]: induces expression

CC/C=C\C[C@H]1C(=O)CC[C@@H]1CC(=O)O [JA, jasmonic acid]
Induction of AoPRT-L promoter-driven GUS activity in leaf discs ([2]; leaf cores floated 3 days on increasing concentrations, compared with 1 mM SA): failed to induce any increase | Induction of AoPRT-L promoter-GUS by wound signals [2]: not induced | Expression of barley aPR5 (barley aPR5): induces expression

[Cl][Mn][Cl] [MnCl2]
Induction of extracellular aPR-5 proteins ([1]; 5 mM): induced

O=C(O)Cc1cccc2ccccc12 [NAA]
Induction of extracellular aPR-5 proteins ([1]; 10 mM): induced

O=C(O)c1ccccc1O [SA, salicylic acid]
Time after start of treatment at which induction is observable ([2]; 1 mM SA): 1 days | GUS activity of AoPRT-L-GUS plants as fraction of that in pPR-1a-GUS-transformed tobacco ([2]; SA induction): about ⅓ | Induction of AoPRT-L promoter-GUS fusion ([2]; 0.1 mM): little induction | Induction of AoPRT-L promoter-GUS fusion ([2]; 1 mM): Substantial induction | Time-dependent induction of AoPRT-L promoter-GUS fusion [2]: clear time-dependent induction | AoPRT-L mRNA accumulation (AoPRT-L mRNA): accumulation was observed | GUS activity of AoPRT-L-GUS maize on treatment (AoPRT-L-GUS): exhibited GUS activity | GUS activity of pAoPRT-Lx3-GUS plants vs equivalent AoPRT-L-GUS plants (AoPRT-Lx3 promoter-GUS): significantly greater level of GUS activity | GUS activity of pGB24 plants vs equivalent AoPRT-L-GUS plants [3]: significantly greater level of GUS activity | GUS activity of pGB24 plants vs equivalent AoPRT-L-GUS plants [4]: significantly greater level of GUS activity | PR-1a promoter-GUS / endogenous PR-1a expression (PR-1a promoter-GUS): high levels | SA concentration at which PR-1a-GUS is clearly induced (PR-1a promoter-GUS): 10 to 100 µM | Induction of expression of PR gene promoters over basal levels (PR gene promoters; spraying, injection or root-feeding): 50-1000 fold

CC(=O)Oc1ccccc1C(=O)O [aspirin, acetyl-SA]
Induction of extracellular aPR-5 proteins ([1]; 5 mM): induced

O=C(O)CC(O)(CC(=O)O)C(=O)O [citric acid]
Induction of extracellular aPR-5 proteins ([1]; 5 mM): induced

O=P(O)(O)CCCl [ethephon]
AoPRT-L mRNA accumulation (AoPRT-L mRNA): not induced | Induction of extracellular aPR-5 proteins ([1]; 10 mM): induced

C=C [ethylene]
Induction of AoPRT-L promoter-GUS by wound signals [2]: not induced

O=C(O)C(=O)O [oxalic acid]
Induction of extracellular aPR-5 proteins ([1]; 5 mM): induced

[Cl-].[Na+] [salt, NaCl]
Induced expression of the AoPRT-L-promoter-GUS construct ('Neither ... induced') ([2]; in vivo): Neither

CC(C)(C)OO [t-butyl-hydroperoxide]
AoPRT-L-promoter-GUS expression after infiltration of pro-oxidant [2]: no GUS expression was detected | Visible tissue damage after infiltration (tobacco leaf tissue; leaf panels, higher concentrations for t-butyl-hydroperoxide): severe visible tissue damage
